Test results taken from article PMC4867592, “Targeting multiple response regulators of Mycobacterium tuberculosis augments the host immune response to infection” (Scientific Reports, 2016).
“And” between values parts separate entries of the source, which are not always exact repeats. Equal entries are not always repeated. Where two headings read alike, the source gives them in different places.

Columns and labels:
[1] = test system: Mtb in hMDM; test: Mtb CFU in infected human monocyte derived macrophages; format: cell-based, Mycobacterium tuberculosis H37Rv; conditions: MOI 5, 20 μM, after 6 days
[2] = test system: Mtb; test: qRT-PCR / semi-quantitative RT-PCR of Mtb gene expression; format: cell-based, Mycobacterium tuberculosis H37Rv
[3] = test system: RAW264.7; test: Survival of RAW264.7 measured by Alamar Blue
[4] = molecular target: T1, DosR (Mycobacterium tuberculosis, UniProt P9WMF9); test: EMSA: binding of phosphorylated DosR (DevR) to hspX promoter-derived DNA; set-up: species or system Mtb
T1 construct: His6; made in house; host or cells: E. coli C43(DE3)
T1 sequence (P9WMF9 whole entry): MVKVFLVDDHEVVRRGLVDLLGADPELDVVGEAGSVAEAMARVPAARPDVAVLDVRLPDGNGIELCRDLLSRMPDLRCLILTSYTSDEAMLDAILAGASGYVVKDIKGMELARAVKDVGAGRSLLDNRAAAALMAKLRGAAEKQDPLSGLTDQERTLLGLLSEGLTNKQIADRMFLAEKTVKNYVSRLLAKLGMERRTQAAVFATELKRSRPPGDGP

[5] = test system: Mtb in BMDM; test: Mtb CFU in infected murine bone marrow derived macrophages; format: cell-based, Mycobacterium tuberculosis H37Rv; conditions: MOI 5, 20 μM, after 6 days
[6] = molecular target: T2, RegX3 (Mycobacterium tuberculosis, UniProt P9WGL9); test: EMSA: binding of phosphorylated RegX3 to ppk1 promoter DNA; set-up: species or system Mtb
T2 construct: made in house; host or cells: E. coli
T2 sequence (P9WGL9 1-227): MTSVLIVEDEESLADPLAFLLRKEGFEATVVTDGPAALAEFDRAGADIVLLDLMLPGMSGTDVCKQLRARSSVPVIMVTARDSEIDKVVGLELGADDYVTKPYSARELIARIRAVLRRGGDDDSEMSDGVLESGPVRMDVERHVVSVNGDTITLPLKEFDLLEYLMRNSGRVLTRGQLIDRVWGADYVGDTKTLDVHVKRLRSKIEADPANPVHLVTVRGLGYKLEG

[7] = test system: NO release from macrophages; test: NO (nitrite) release from macrophages, Griess reagent; format: cell-based
Procedure: For NO (nitrite) measurements, RAW264.7 was infected with Mtb in DMEM for 24–48 h. Nitrite was measured using Griess reagent (Invitrogen), according to the manufacturer’s instructions. Absorbance was read at 540 nm in an ELISA reader and the concentrations of nitrite were calculated against a standard curve.
(§1) RAW 264.7 cells or hMDMs or BMDMs were seeded at ~3x10^5 cells per well on 18 mm cover slips.
(§2) After infection and treatment with C2 or isoniazid (INH) , the cells were fixed with 4% paraformaldehyde for 10 min at 25°C followed by permeabilisation with 0.01% Triton X-100 in PBS for 10 min at 25°C. The cells were then treated with 10% BSA in PBS for 90 min at 25°C followed by treatment with anti-LC3 antibody at 4°C overnight. Cells were then washed with PBS and treated with Alexa488 conjugated secondary antibody for 90 min at 25°C. Cells were visualized in a Leica confocal […]
(§3) Bacterial CFU determinations
RAW264.7 cells or hMDMs or BMDMs were plated in 48 well plates. Cells were infected with Mtb and treated with C2 or C6 for the desired periods of time. […] CFUs were calculated in triplicate using standard procedures. […] Alamar Blue was added and readings were taken upon development of […]
For NO (nitrite) measurements, RAW264.7 or MDMs or BMDMs were infected with Mtb H37Rv. […] Supernatant nitrite concentrations were measured by reading absorbance at 540 nm and calculated using a standard curve. […]

[8] = molecular target: T3, MtrA (Mycobacterium tuberculosis, UniProt P9WGM7); test: EMSA: binding of phosphorylated MtrA to fbpB promoter DNA; set-up: species or system Mtb
T3 construct: Full length MtrA/Rv3246c excluding the stop codon; His (C); made in house; host or cells: E. coli C41(DE3)
T3 sequence (P9WGM7 1-228): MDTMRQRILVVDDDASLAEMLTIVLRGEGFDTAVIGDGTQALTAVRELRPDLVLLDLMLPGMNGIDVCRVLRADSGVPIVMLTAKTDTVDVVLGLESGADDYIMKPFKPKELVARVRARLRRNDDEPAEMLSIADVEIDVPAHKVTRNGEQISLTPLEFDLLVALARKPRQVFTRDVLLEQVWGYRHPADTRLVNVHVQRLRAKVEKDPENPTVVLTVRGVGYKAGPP

[9] = test system: Mtb Erdman; format: cell-based, Mycobacterium tuberculosis Erdman; conditions: immunoblot
[10] = test system: Mtb-infected macrophages; test: Autophagy assays in Mtb-infected macrophages (LC3-II immunoblot, LC3 puncta); format: cell-based; conditions: for LC3 puncta formation in infected macrophages: BMDMs, hMDMs, RAW264.7, C2 20 μM, isoniazid 0.5 µg/ml
Procedure: For autophagy analysis, infected macrophages were lysed and immunoblotted with LC3 antibody. For the visualisation of LC3 puncta, infected macrophages were incubated with LC3 antibody followed by immunostaining with Alexa 488-conjugated secondary antibody. Images were acquired in a Leica confocal microscope. At least 100 cells were counted to enumerate the number of punctated cells. Detailed methods have been provided in the supplemental section.
as §1, §2, §3
RAW264.7 cells or hMDMs or BMDMs were plated in 48 well plates. Cells were infected with Mtb and treated with C2 or C6 for the desired periods of time. Infected cells were lysed in distilled water with 0.06% SDS. Serial dilutions of homogenates were plated on 7H11 agar plates supplemented with 10% OADC and incubated at 37 °C for 3–4 weeks. CFUs were calculated in triplicate using standard procedures. For Alamar Blue assays, bacteria from the cell lysates were washed and transferred to a 96 well plate in MB 7H9. Alamar Blue was added and readings were taken upon development of […]
For NO (nitrite) measurements, RAW264.7 or MDMs or BMDMs were infected with Mtb H37Rv. Control and infected supernatants obtained in the absence or presence of C2, were used for the measurement of nitrite using Griess reagent (Invitrogen), according to the manufacturer’s instructions. Supernatant nitrite concentrations were measured by reading absorbance at 540 nm and calculated using a standard curve. […]

[11] = test system: Mtb; format: cell-based, Mycobacterium tuberculosis H37Rv
[12] = molecular target: T4, MprA (Mycobacterium tuberculosis, UniProt P9WGM9); test: EMSA: binding of phosphorylated MprA to mprA promoter DNA; set-up: species or system Mtb
T4 construct: His (N); made in house; host or cells: E. coli BL21(DE3)
T4 sequence (P9WGM9 1-230): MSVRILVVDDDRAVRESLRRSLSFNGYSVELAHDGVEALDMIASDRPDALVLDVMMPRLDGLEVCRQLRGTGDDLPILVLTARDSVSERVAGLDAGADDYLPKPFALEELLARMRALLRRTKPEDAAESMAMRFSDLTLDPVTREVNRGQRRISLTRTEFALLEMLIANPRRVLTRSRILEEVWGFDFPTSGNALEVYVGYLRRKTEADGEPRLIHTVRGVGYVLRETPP

[13] = test system: Mtb; test: Alamar Blue assay of Mtb growth in vitro; format: cell-based, Mycobacterium tuberculosis H37Rv
[14] = test system: Mtb; test: Growth curve of Mtb (absorbance at 600 nm); format: cell-based, Mycobacterium tuberculosis H37Rv

2-iminothiazolidine-4-one [Compound 2]
Decrease in CFU of Mtb in MDMs [1]: ~ 8 fold
Expression of activated targets sigB, sigE, Rv0081, ftsI, dnaN, pstS3 ([2]; 20 µM): repressed
Expression of repressible targets rpfB, gltA1, cydA ([2]; 20 µM): augmented
esxA expression ([2]; 20 µM): lowered
Expression of espA and espR ([2]; 20 µM, 48 hours of treatment): reduced
Expression of mtrA, regX3 and mprA ([2]; exposure for 48 h): inhibited
Viability of RAW264.7 [3]: did not affect the viability
Inhibition of DosR binding to hspX promoter-derived DNA fragment [4]: did not inhibit binding of DosR
Decrease in CFU of Mtb in BMDMs [5]: ~ 8 fold
Inhibition of binding ability of RegX3 [6]: inhibited the binding ability of RegX3
IC50 ([6]; densitometry, read-out: IC50, inhibition of RegX3 binding to ppk1 promoter): 18 µM
NO release from infected macrophages ([7]; Mtb-infected BMDMs, hMDMs, RAW264.7, 20 μM): significantly higher
NO release from uninfected macrophages ([7]; compound alone, data not shown): did not affect NO release
Inhibition of DNA binding activity of MtrA [8]: could inhibit DNA binding activity of MtrA
IC50 ([8]; densitometry, read-out: IC50, inhibition of MtrA binding to fbpB promoter): 21 µM
ESAT-6 in the culture filtrate [9]: reduced amounts of ESAT-6
LC3 puncta formation in infected macrophages [10]: enhanced
Conversion of LC3-I to LC3-II ([10]; Mtb infected RAW 264.7, immunoblot): enhanced
Retention of pBP10 by Mtb [11]: higher levels of retention of pBP10
Inhibition of binding ability of MprA [12]: inhibited
IC50 ([12]; densitometry, read-out: IC50, inhibition of MprA binding to mprA promoter): 4 µM
In vitro IC50 against Mtb [13]: 6 µg/mL
In vitro MIC against Mtb [13]: 17 μg/ml and 25 μM
In vitro IC50 against Mtb ([13]; listed as C2): ~ 6 μg/ml
IC50 ([13]; read-out: In vitro IC50 against Mtb): 9 µM
Growth curve of Mtb [14]: levelled off earlier

NNC(=O)c1ccncc1 [INH, isoniazid, reference compound]
LC3 puncta formation in infected macrophages [10]: enhanced
